The text below walks through data of US9128079B2, “Methods of using lung or bronchial epithelial cells to identify bitter taste modulators” (The Coca-Cola Company, priority 2011, dated 2015).

SMILES strings stand for the structures.

The subject of assay [1] is 16HBE cells. Kind of assay: FLIPR calcium flux assay, intracellular calcium release on tastant addition. Particulars: increasing concentrations of tastant, calcium-sensitive dye, FIG. 2. It counts as cell-based, human. The method, then:
Calcium flux assays were performed as previously described in Strachan et al., “Ribosomal S6 kinase 2 directly phosphorylates the 5-hydroxytryptamine 2A (5-HT2A) serotonin receptor, thereby modulating 5-HT2A signaling,” J Biol Chem 284:5557-5573 (2009). 16-HBE cells were trypsinized, counted, and seeded onto clear-bottomed 96 well plates (Greiner Bio-One; Monroe, N.C.) pre-coated with poly-D-lysine, at a density of […]. After a 24 hour incubation, media was removed and replaced with a Ca^2+ assay buffer (20 mM HEPES, lx HBSS, 2.5 mM probenecid, and Ca^2+ assay dye, pH 7.4) (FLIPR® Calcium Assay Kit; Molecular Device Corp, Sunnyvale, Calif.). After a 1-hour incubation at 37° C., during which the cells were allowed to take up the dye, fluorescence responses of cells were measured with a FLIPRTETRA (Molecular Device Corp; Sunnyvale, Calif.) device upon the addition of variable concentrations of tastant, or vehicle, in the presence of assay buffer (20 mM HEPES, pH 7.4, 1× Hanks Balanced Salt [Invitrogen; Carlsbad, Calif.] and 2.5 mM probenecid). After data acquisition, a subsequent addition of […] was injected into each well, and fluorescence was measured again. […] The cells were loaded with fluorescent calcium-sensitive dye, treated with a variety of tastants, and monitored for intracellular calcium release with a FLIPR imaging device.
For orientation: Calcium assays in cells follow changes in intracellular calcium, usually with a dye or a luminescent sensor.

The subject of assay [2] is 16HBE cells. Description: GloSensor cAMP assay, inhibition of forskolin-stimulated cAMP production. It counts as cell-based, human. Particulars: increasing concentrations, GloSensor luminescence, FIG. 3. The method, then:
Also shown is that overexpression of the wildtype form of RGS21 blunts bitter signaling and increases cAMP levels. Inhibition of forskolin-stimulated cAMP production by treatment with indicated concentrations of denatonium-B was determined 24 hours post-transfection by detection of Promega's cAMP GloSensor-dependent luminescence. Twenty-four hours post-transfection, cells were re-plated on poly-D-lysine-treated, clear-bottom, white 384-well plates at a density of 15,000 cells/well. Forty-eight hours post-transfection, culture medium was aspirated and cells were washed once with assay medium (DMEM (without FBS or phenol), 15 mM HEPES pH 7.4) before being incubated for 2 hours with 20 ill/well of equilibration medium (assay medium with 4% GloSensor™ substrate (Promega; Madison, Wis.)). After two hours, 10 μl of 3× final concentration denatonium benzoate (diluted in 3 μM forskolin-containing assay medium) was added to each well and allowed to incubate for 10 minutes before GloSensor™ emission was read on a MicroBeta Plate Counter (PerkinElmer; Waltham, Mass.). Before plotting, luminescence counts were normalized to 100% maximal response for each condition to account for variability in GloSensor™ expression, transfection efficiency, and the exact number of cells per well.
(cAMP levels reflect the balance of adenylyl cyclase and phosphodiesterase activity.)

Take `CC[N+](CC)(CC(=O)Nc1c(C)cccc1C)Cc1ccccc1` [denatonium-B, denatonium benzoate]: the “intracellular calcium response of 16HBE cells” value with 16HBE cells [1] is given as “increase in intracellular calcium”. Further, in the assay with 16HBE cells [2], the “intracellular cyclic AMP concentration in 16HBE cells” value is given as “decreasing the concentration of intracellular cyclic AMP”.
